The values below come from patent US4459302A, “Acyl-1H-1,2,4-triazole derivatives” (Gruppo Lepetit, S.p.A., priority 1978, dated 1984).

Some results are limits rather than exact numbers.

The first assay deals with female Syrian golden hamsters. In words: antifertility (post-coital post-implantation) activity, subcutaneous, hamsters. Type of assay: in vivo, Syrian golden hamster. The note with it: Mesocricetus auratus, sc, 336 h; s.c. hamster; dosed days 4-8 of pregnancy, autopsy day 14; read-out: ED50 (100% activity, absence of live fetuses, in 50% of the animals). From the text: Fertility regulation can usually be achieved in a number of ways through the administration of hormonal substances. These can involve ovulation inhibition, ova transport, fertilization, implantation of the zygote, resorption of the fetus or abortion. Only with ovulation inhibition has there developed a successful method that is clinically useful. The compounds of this invention allow an entirely new approach to this problem in which a non-hormonal compound can be administered parenterally, orally or by intravaginal route once or more times as needed after a "missed period" or to induce termination of a more advanced pregnancy. Representative experiments for assessing antifertility activity were carried out with female Syrian golden hamsters weighing 100 to 130 g. The animals were mated and the presence of sperm in the vagina was taken as evidence of mating. The day sperm was detected and considered day one of pregnancy, since in our laboratories and those of other investigators 90 to 100% of animals that mate as evidenced by vaginal sperm are pregnant.
Pregnancy was later confirmed at the time of autopsy by presence of fetuses or implantation sites in the uterus. Even if an animal aborts the fetus, implantation scars still remain as evidence that the animal has been pregnant. […] The animals were autopsied on day 14 of pregnancy and the uteri were examined for evidence of pregnancy (implantation sites, fetalresorption or live fetuses), hemorrhage, and evidence of abnormalities of the uterus, placenta or fetuses. A compound was considered to be active if there was a reduction of live fetuses in at least 60% of the treated animals and the presence of implantation sites proves the animal to have been pregnant.
The compounds were then studied for dose-activity relationship and the corresponding ED50 values, i.e. 100% activity (absence of live fetuses) in 50% of the animals, were also detrmined. The following Table reports the ED50 values of some representative compounds of the invention as well as that of the above mentioned known substance: […]
As for `CCOC(=O)n1nc(-c2cccc(OC)c2)nc1-c1ccccc1CC` [Example 8, 1-Carbethoxy-5-(2-ethylphenyl)-3-(3-methoxyphenyl)-1H-1,2,4-triazole], the 50% effective dose (ED50) was found to be 0.05 mg/kg.

Turning to `COc1cccc(-c2nc(-c3ccccc3C)n(C(C)=O)n2)c1` [Example 1, 1-Acetyl-3-(3-methoxyphenyl)-5-(2-methylphenyl)-1H-1,2,4-triazole], the median effective dose (ED50) amounted to 0.05 mg/kg. On the same count and under the same terms, in the case of `CCc1ccccc1-c1nc(-c2cccc(OC)c2)nn1C(=O)OC` [Example 9, 1-Carbomethoxy-5-(2-ethylphenyl)-3-(3-methoxyphenyl)-1H-1,2,4-triazole] it was 0.05 mg/kg; in that of `CCc1ccccc1-c1nc(-c2cccc(OC)c2)nn1C(=O)Nc1ccccc1Cl` [Example 18], 0.05 mg/kg. Still for that read-out and setting: as for `COc1cccc(-c2nc(-c3ccccc3C)nn2C(=O)Nc2ccc(C)cc2)c1` [Example 22b, 5-(3-methoxyphenyl)-3-(2-methylphenyl)-1-(4-methylphenylcarbamoyl)-1H-1,2,4-triazole], the figure is 0.08 mg/kg. Same read-out and setting: in the case of `CCc1ccccc1-c1nc(-c2cccc(OC)c2)nn1C(=O)Nc1ccc(OC)cc1` [Example 17, 5-(2-Ethylphenyl)-3-(3-methoxyphenyl)-1-(4-methoxyphenylcarbamoyl)-1H-1,2,4-triazole] it was 0.07 mg/kg. Consider `COc1cccc(-c2nc(-c3ccccc3COC(C)=O)n(C(C)=O)n2)c1` [Example 7, 1-Acetyl-5-(2-acetoxymethylphenyl)-3-(3-methoxyphenyl)-1H-1,2,4-triazole], for which the median effective dose (ED50) is 0.04 mg/kg. Still for that read-out and setting: in the case of `CCNC(=O)n1nc(-c2cccc(OC)c2)nc1-c1ccccc1C` [Example 14] it was 0.15 mg/kg. Same read-out and setting: in the case of `CCc1ccccc1-c1nc(-c2cccc(OC)c2)nn1C(=O)Nc1ccccc1` [Example 16] it was 0.05 mg/kg. Still for that read-out and setting: in the case of `COc1cccc(-c2nc(-c3ccccc3C)n(C(=O)Nc3ccc(C)cc3)n2)c1` [Example 22a, 3-(3-methoxyphenyl)-5-(2-methylphenyl)-1-(4-methylphenylcarbamoyl)-1H-1,2,4-triazole] it was 0.08 mg/kg; in that of `COc1cccc(-c2nc(-c3ccccc3C)n(C(=O)c3ccccc3)n2)c1` [Example 11, 1-Benzoyl-3-(3-methoxyphenyl)-5-(2-methylphenyl)-1H-1,2,4-triazole], 0.1 mg/kg; in that of `CCc1ccccc1-c1nc(-c2cccc(OC)c2)n(C(=O)Nc2ccc(C)cc2)n1` [Example 21b, 3-(2-ethylphenyl)-5-(3-methoxyphenyl)-1-(4-methylphenylcarbamoyl)-1H-1,2,4-triazole], 0.04 mg/kg. With `COc1cccc(-c2n[nH]c(-c3ccccc3COC(C)=O)n2)c1` [Example 24, 5-(2-Acetoxymethylphenyl)-3-(3-methoxyphenyl)-1H-1,2,4-triazole], the ED50 amounted to 0.04 mg/kg. For the compound `CCc1ccccc1-c1nc(-c2cccc(OC)c2)nn1C(C)=O` [Example 6, 1-Acetyl-5-(2-ethylphenyl)-3-(3-methoxyphenyl)-1H-1,2,4-triazole], the median effective dose (ED50) came out at 0.04 mg/kg. In the case of `CCc1ccccc1-c1nc(-c2cccc(OC)c2)nn1C(=O)NC` [Example 15, 5-(2-Ethylphenyl)-3-(3-methoxyphenyl)-1-methylcarbamoyl-1H-1,2,4-triazole], the 50% effective dose (ED50) stood at 0.05 mg/kg. On the same count and under the same terms, as for `COc1cccc(-c2nc(-c3ccccc3C)n(C)n2)c1` [1-Methyl-3-(3-methoxyphenyl)-5-(2-methylphenyl)-1H-1,2,4,-triazole, reference compound], the figure is greater than 10 mg/kg; as for `COc1cccc(-c2nc(-c3ccc(Cl)cc3C)n(C(C)=O)n2)c1` [Example 5, 1-Acetyl-5-(4-chloro-2-methylphenyl)-3-(3-methoxyphenyl)-1H-1,2,4-triazole], 0.06 mg/kg. Still for that read-out and setting: in the case of `COc1cccc(-c2nc(-c3ccccc3C)n(C(=O)Nc3ccccc3)n2)c1` [Example 13, 3-(3-Methoxyphenyl)-5-(2-methylphenyl)-1-phenylcarbamoyl-1H-1,2,4-triazole] it was 0.05 mg/kg; in that of `COc1cccc(-c2nc(-c3ccccc3C)n(C(=O)C(C)(C)C)n2)c1` [Example 3, 1-(2,2-Dimethylpropionyl)-3-(3-methoxyphenyl)-5-(2-methylphenyl)-1H-1,2,4-triazole], 0.15 mg/kg. Take `CCOC(=O)n1nc(-c2cccc(OC)c2)nc1-c1ccccc1C` [Example 10, 1-Carbethoxy-3-(3-methoxyphenyl)-5-(2-methylphenyl)-b 1H-1,2,4-triazole]: the median effective dose (ED50) was 0.06 mg/kg. On the same count and under the same terms, in the case of `CCc1ccccc1-c1nc(-c2cccc(OC)c2)nn1C(=O)Nc1ccc(C)cc1` [Example 21a, 5-(2-Ethylphenyl)-3-(3-methoxyphenyl)-1-(4-methylphenylcarbamoyl)-1H-1,2,4-triazole] it was 0.05 mg/kg.

For the compound `CCc1ccccc1-c1nc(-c2cccc(OC)c2)nn1C(=O)Nc1ccc([N+](=O)[O-])cc1` [Example 20, 5-(2-Ethylphenyl)-3-(3-methoxyphenyl)-1-(4-nitrophenyl)carbamoyl-1H-1,2,4-triazole], the median effective dose (ED50) was 0.05 mg/kg.

Turning to `CCc1ccccc1-c1nc(-c2cccc(OC)c2)nn1C(=O)Nc1ccc(Cl)cc1` [Example 19, 1-(4-Chlorophenylcarbamoyl)-5-(2-ethylphenyl)-3-(3-methoxyphenyl)-1H-1,2,4-triazole], the ED50 was determined as 0.05 mg/kg. Same read-out and setting: as for `CCC(=O)n1nc(-c2cccc(OC)c2)nc1-c1ccccc1C` [Example 2, 1-Propionyl-3-(3-methoxyphenyl)-5-(2-methylphenyl)-1H-1,2,4-triazole], the figure is 0.07 mg/kg.

Still in this assay, the particulars now being: hamster, 10 mg/kg s.c. daily for 5 days, days 4-8 of pregnancy.
`COc1cccc(-c2nc(-c3ccccc3C)n(C)n2)c1` [1-Methyl-3-(3-methoxyphenyl)-5-(2-methylphenyl)-1H-1,2,4,-triazole, reference compound]: the “activity by the criterion: reduction of live fetuses in at least 60% of the treated animals” value is “much less active”.

For orientation: ED50 means the dose at which the effect has come halfway, by size or by number of responders.
